Structures can show the parent of a compound that is named as a salt.
Columns and labels:
[1] = molecular target: T1, phosphorylated LCK kinase (Homo sapiens, UniProt P06239, C224D/P223M); assay: Inhibition of phosphorylated LCK tyrosine kinase activity (coupled spectrophotometric assay); assay type: biochemical; details: read-out: P-LCK % Inhibition at 1 μM
T1 construct: starting from amino acid 223 to the end of the protein at amino acid 509; made in house; host or cells: insect cells
Protocol: (§1) Cloning, expression and purification of the cytosolic domain of FGFR1 tyrosine kinase (amino acids 456-766) containing three amino acid substitutions (L457V, C488A, and C584S) were conducted as previously described (Mohammadi, M., Schiessinger, J., & Hubbard, S. R. Cell, 86, (1996) 577-587). This domain was expressed in Sf9 insect cells using a baculovirus expression vector, and protein was purified using conventional techniques. The LCK tyrosine kinase was expressed in insect cells as an N-terminal deletion starting from amino acid 223 to the end of the protein at amino acid 509. The N-terminus of the protein also had two amino acid substitutions, P223M and C224D. Kinases were purified using conventional chromatographic methods.
(§2) Tyrosine kinase activity was measured using a coupled, continuous spectrophotometric assay, in which production of phosphorylated poly(Glu,Tyr; 4:1) substrate and ADP is coupled to the pyruvate kinase-catalyzed transfer of a phosphate from phosphoenolpyruvate to ADP, with generation of pyruvate and regeneration of ATP. Pyruvate production is in turn coupled to the lactate dehydrogenase-catalyzed reduction of pyruvate to form lactate, with concomitant conversion of NADH to NAD^+. Loss of NADH is monitored by measuring absorbance at 340 nm (see e.g., Technikova-Dobrova et al., “Spectrophotometric Determination of Functional Characteristics of Protein Kinases with Coupled Enzymatic Assay,” FEBS Letters, 292 (1991), pp. 69-72). Enzyme activity was measured in the presence of 200 mM HEPES (pH 7.5), 2 mM phosphoenolpyruvate, 0.3 mM NADH, 20 mM MgCl2, 100 μM ATP, 5 mM DTT, 5.1 or 25 mM poly (Glu,Tyr) 4:1 for P-FGF or P-LCK assays, respectively, and 15 units/mL each of pyruvate kinase and lactate dehydrogenase. Phosphorylated FGF receptor kinase was present at 100 nM and phosphorylated LCK kinase was present at 50 nM. Assays were performed under initial rate conditions at 37° C., and rates were corrected for any background rate measured in the absence of enzyme. Percent inhibition was calculated relative to control enzyme assayed in the presence of 2% (v/v) DMSO.

HCT-116 cell line = assay: Inhibition of cell growth, MTT tetrazolium salt assay; assay type: cell-based; details: for IC50: Homo sapiens, HCT-116, 120 h, MTT, three to five days
Method in brief: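 Cells in McCoy's 5A medium were given 4 h before compound addition in 0.5% (v/v) DMSO, then incubated 3–5 days at 37 °C, 5% CO2. After 4 h with 0.2 mg/mL MTT, DMSO-solubilized formazan was read at 540 nm; 50% and 90% growth-inhibitory concentrations came from semi-log plots against vehicle controls.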

human CDK4/cyclin D3 = molecular target: T2, human CDK4/cyclin D3 (Homo sapiens, UniProt P11802); assay: Inhibition of CDK4/cyclin D retinoblastoma kinase activity (Ki; % inhibition); assay type: biochemical; details: for Ki: apparent Ki, CDK4/cyclin D3, Rb substrate
T2 construct: made in house; host or cells: insect cells co-infected with baculovirus vectors
Method in brief: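 Insect-cell-expressed CDK4 with truncated cyclin D3 (1-264), 5 nM, phosphorylating His-tagged Rb fragment (386-928) with 25 μM [32/33P]ATP at pH 7.4, 30 °C, 20 min (60 min for tight binders). Filter capture, phosphorimager read; % inhibition at 30 nM compound, Ki from competitive or tight-binding fits.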

[2] = molecular target: T3, Phosphorylated FGF receptor kinase (FGFR1 cytosolic domain) (Homo sapiens, UniProt P11362, C488A/C584S/L457V); assay: Inhibition of phosphorylated FGF receptor tyrosine kinase activity (coupled spectrophotometric assay); assay type: biochemical; details: read-out: P-FGF % Inhibition at 1 μM
T3 construct: FGFR1 tyrosine kinase (amino acids 456-766); made in house; host or cells: Sf9 insect cells (baculovirus)
Protocol: as §1, §2

CDK2/cyclin A = molecular target: T4, CDK2/cyclin A (Homo sapiens, UniProt P24941); assay: Inhibition of CDK2/cyclin A retinoblastoma kinase activity (Ki; % inhibition); assay type: biochemical; details: for Ki: apparent Ki, CDK2/cyclin A, Rb substrate
T4 construct: made in house; host or cells: CDK2: insect cells (baculovirus); cyclin A: E. coli
Method in brief: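 Radiometric filter assay of CDK2/proteolyzed cyclin A (baculovirus-expressed human CDK2, 10 or 19 nM) phosphorylating an Rb fragment with 25 μM [³²P/³³P]ATP in pH 7.4 HEPES, 2% DMSO, at 30 °C for 60 or 75 min under initial-rate conditions. Library compounds screened at 30 nM for % inhibition; apparent Ki from concentration series fit to competitive or tight-binding inhibition equations.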

[3] = molecular target: T5, human CDK1 (cdc2)/cyclin B (Homo sapiens, UniProt P06493); assay: Inhibition of CDK1 (cdc2)/cyclin B histone H1 kinase activity; assay type: biochemical; details: histone H1 substrate
T5 construct: purchased New England Biolabs (Beverly, Mass.)
Protocol: Cyclin-dependent kinase activity was measured by quantifying the enzyme-catalyzed, time-dependent incorporation of radioactive phosphate from [^32P]ATP or [^33P]ATP into a protein substrate. Unless noted otherwise, assays were performed in 96-well plates in a total volume of 50 μL, in the presence of 10 mM HEPES (N-[2-hydroxyethyl]piperazine-N′-[2-ethanesulfonic acid]) (pH 7.4), 10 mM MgCl2, 25 μM adenosine triphosphate (ATP), 1 mg/mL ovalbumin, 5 μg/mL leupeptin, 1 mM dithiothreitol, 10 mM β-glycerophosphate, 0.1 mM sodium vanadate, 1 mM sodium fluoride, 2.5 mM ethylene glycol-bis(β-aminoethyl ether)-N,N,N′N′-tetraacetic acid (EGTA), 2% (v/v) dimethylsulfoxide, and 0.03-0.4 μCi [^32/33P]ATP per reaction. Reactions were initiated with enzyme, incubated at 30° C., and terminated after 20 minutes by the addition of ethylenediaminetetraacetic acid (EDTA) to 250 mM. The phosphorylated substrate was then captured on a nitrocellulose or phosphocellulose membrane using a 96-well filtration manifold, and unincorporated radioactivity was removed by repeated washing with 0.85% phosphoric acid. Radioactivity was quantified by exposing the dried membranes to a phosphorimager.
Compounds from combinatorial libraries were screened from 96-well plates for % inhibition of CDK activity at 30 nM theoretical compound concentration. Inhibition was measured relative to control wells that contained all reaction components including 2% (v/v) DMSO but no compound, after subtraction of background radioactivity measured in the absence of enzyme. Apparent Ki values of discrete compounds were measured by assaying enzyme activity in the presence of different inhibitor compound concentrations and subtracting the background radioactivity measured in the absence of enzyme. The kinetic parameters (kcat, Km for ATP) were measured for each enzyme under the usual assay conditions by determining the dependence of initial rates on ATP concentration. Inhibition data were fit to an equation for competitive inhibition using Kaleidagraph (Synergy Software), or were fit to an equation for competitive tight-binding inhibition using the software KineTic (BioKin, Ltd.).
The complex of human CDK1 (cdc2) and cyclin B was purchased from New England Biolabs (Beverly, Mass.). Alternatively, a CDK1/glutathione-S-transferase-cyclin B1 complex was purified using glutathione affinity chromatography from insect cells that had been co-infected with the corresponding baculovirus expression vectors. The assay was executed as described above at 30° C. using 2.5 units of cdc2/cyclin B, 10 μg Histone H1 protein, and 0.1-0.3 μCi [^32/33P]ATP per assay. Phosphorylated histone substrate was captured by microfiltration on a phosphocellulose P81 membrane and quantified using a phosphorimager as described above. Ki values were measured using the described curve-fitting programs.

T1 sequence (P06239 223-509 P223M/C224D): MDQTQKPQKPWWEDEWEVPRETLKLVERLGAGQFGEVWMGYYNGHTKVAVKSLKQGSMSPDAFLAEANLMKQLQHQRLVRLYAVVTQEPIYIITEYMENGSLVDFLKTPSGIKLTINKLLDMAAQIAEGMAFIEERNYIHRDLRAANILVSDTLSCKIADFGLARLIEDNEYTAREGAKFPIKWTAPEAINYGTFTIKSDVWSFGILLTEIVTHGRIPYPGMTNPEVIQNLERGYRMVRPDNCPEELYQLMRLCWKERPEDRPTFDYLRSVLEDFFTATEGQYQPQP
T2 sequence (P11802 whole entry): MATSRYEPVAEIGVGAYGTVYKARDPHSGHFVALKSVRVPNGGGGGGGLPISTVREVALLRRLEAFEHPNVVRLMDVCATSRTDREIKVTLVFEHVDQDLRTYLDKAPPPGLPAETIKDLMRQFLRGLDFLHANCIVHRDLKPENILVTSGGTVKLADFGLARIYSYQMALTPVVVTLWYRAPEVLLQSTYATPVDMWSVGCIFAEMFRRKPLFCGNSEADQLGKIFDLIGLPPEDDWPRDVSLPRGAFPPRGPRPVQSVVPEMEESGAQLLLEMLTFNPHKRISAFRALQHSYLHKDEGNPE
T2 sequence (P30281 1-264 partner limits assumed): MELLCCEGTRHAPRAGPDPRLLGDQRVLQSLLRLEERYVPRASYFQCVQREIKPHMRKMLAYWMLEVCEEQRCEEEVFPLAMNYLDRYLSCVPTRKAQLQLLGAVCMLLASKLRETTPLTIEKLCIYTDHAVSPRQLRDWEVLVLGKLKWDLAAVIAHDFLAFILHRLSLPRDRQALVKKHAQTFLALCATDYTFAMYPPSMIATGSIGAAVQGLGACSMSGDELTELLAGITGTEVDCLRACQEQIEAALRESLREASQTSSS
T3 sequence (P11362 456-766 L457V/C488A/C584S): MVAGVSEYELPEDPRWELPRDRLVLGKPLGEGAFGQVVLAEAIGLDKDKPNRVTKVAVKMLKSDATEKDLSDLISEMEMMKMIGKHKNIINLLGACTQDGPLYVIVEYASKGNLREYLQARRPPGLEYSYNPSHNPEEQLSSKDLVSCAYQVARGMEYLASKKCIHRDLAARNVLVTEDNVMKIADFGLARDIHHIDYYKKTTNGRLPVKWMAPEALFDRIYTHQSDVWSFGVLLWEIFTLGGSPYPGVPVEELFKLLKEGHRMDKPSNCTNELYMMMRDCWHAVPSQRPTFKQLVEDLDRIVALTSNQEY
T5 sequence (P06493 whole entry): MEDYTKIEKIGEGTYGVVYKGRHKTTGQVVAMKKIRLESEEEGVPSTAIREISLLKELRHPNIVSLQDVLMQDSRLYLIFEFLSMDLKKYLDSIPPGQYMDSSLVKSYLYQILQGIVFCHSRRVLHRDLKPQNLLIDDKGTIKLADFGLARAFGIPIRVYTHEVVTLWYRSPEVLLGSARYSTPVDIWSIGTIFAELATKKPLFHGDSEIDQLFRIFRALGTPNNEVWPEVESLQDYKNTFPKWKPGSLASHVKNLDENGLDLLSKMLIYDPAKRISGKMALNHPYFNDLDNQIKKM
T5 sequence (P14635 whole entry partner): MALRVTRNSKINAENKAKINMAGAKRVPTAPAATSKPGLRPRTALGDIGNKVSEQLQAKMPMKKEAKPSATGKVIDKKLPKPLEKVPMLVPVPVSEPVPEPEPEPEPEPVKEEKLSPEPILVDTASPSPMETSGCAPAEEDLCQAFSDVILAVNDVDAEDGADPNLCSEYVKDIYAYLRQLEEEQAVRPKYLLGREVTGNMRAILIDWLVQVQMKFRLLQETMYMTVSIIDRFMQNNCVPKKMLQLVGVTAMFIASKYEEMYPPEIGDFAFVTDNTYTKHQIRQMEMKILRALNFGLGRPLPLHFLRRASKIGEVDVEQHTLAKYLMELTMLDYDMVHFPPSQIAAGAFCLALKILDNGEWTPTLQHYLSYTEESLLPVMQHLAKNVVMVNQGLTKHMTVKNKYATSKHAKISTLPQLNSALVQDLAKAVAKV

| SMILES | inhibition at 1 µM [1] | IC50 (HCT-116 cell line) | Ki (human CDK4/cyclin D3) | inhibition at 1 µM [2] | Ki (CDK2/cyclin A) | melting point | Ki [3] | CDK4 % Inhibition at 0.03 μM (human CDK4/cyclin D3; at 0.03 μM) | CDK2 % Inhibition at 0.03 μM (CDK2/cyclin A; at 0.03 μM) | HCT-116 % Inhibition at 0.1 μM (HCT-116 cell line; HCT-116, at 0.1 μM) | HCT-116 % Inhibition at 0.25 μM (HCT-116 cell line; HCT-116, at 0.25 μM) |
| --- | --- | --- | --- | --- | --- | --- | --- | --- | --- | --- | --- |
| Nc1nc(Nc2ccc(C(=O)Nc3ccccc3)cc2)sc1C(=O)c1c(F)cccc1F [Example A9, 4-[4-Amino-5-(2,6-difluoro-benzoyl)-thiazol-2-ylamino]-N-phenyl-benzamide] | 5% | 140 nM | 12 nM | 5% | 27 nM |  |  |  |  |  |  |
| CCN1CCCC1CNC(=O)c1ccc(Nc2nc(N)c(C(=O)c3c(F)cccc3F)s2)cc1 (stereo not shown) [Example A11, 4-[4-Amino-5-(2,6-difluoro-benzoyl)-2-ylamino]-N-(1-ethyl-pyrrolidin-2RS-ylmethyl)-benzamide] | 6% | 170 nM | 14 nM |  | 82 nM |  |  |  |  |  |  |
| Nc1nc(Nc2ccc(C(=O)NCCNc3ccccc3)cc2)sc1C(=O)c1c(F)cccc1F [Example A2, 4-[4-Amino-5-(2,6-difluoro-benzoyl)-thiazol-2-ylamino]-N-(2-phenylamino-ethyl)-benzamide] | 4% | 140 nM | 8 nM | 8% | 3.2 nM |  |  |  |  |  |  |
| CN(C)CCN(C)C(=O)c1ccc(Nc2nc(N)c(C(=O)c3c(F)cccc3F)s2)cc1 [Example A3, 4-[4-Amino-5-(2,6-difluoro-benzoyl)-thiazol-2-ylamino]-N-(2-dimethylamino-ethyl)-N-methyl-benzamide] | 5% | 750 nM | 21 nM | 7% | 170 nM |  |  |  |  |  |  |
| CC(CCCC(C)(C)O)NC(=O)c1ccc(Nc2nc(N)c(C(=O)c3c(F)cccc3F)s2)cc1 (stereo not shown) [Example A5, 4-[4-Amino-5-(2,6-difluoro-benzoyl)-thiazol-2-ylamino]-N-(6-hydroxy-6-methyl-hept-2-yl)-benzamide] | 3% | 1200 nM | 66 nM | 5% | 72 nM |  |  |  |  |  |  |

Further lines, with some results ahead:

| inhibition at 1 µM [1] | IC50 (HCT-116 cell line) | Ki (human CDK4/cyclin D3) | inhibition at 1 µM [2] | Ki (CDK2/cyclin A) | melting point | Ki [3] | CDK4 % Inhibition at 0.03 μM (human CDK4/cyclin D3; at 0.03 μM) | CDK2 % Inhibition at 0.03 μM (CDK2/cyclin A; at 0.03 μM) | SMILES | HCT-116 % Inhibition at 0.1 μM (HCT-116 cell line; HCT-116, at 0.1 μM) | HCT-116 % Inhibition at 0.25 μM (HCT-116 cell line; HCT-116, at 0.25 μM) |
| --- | --- | --- | --- | --- | --- | --- | --- | --- | --- | --- | --- |
|  |  |  |  |  | 275 to 290 °C (dec.) |  |  |  | CN(C)CC(C)(C)NC(=O)c1ccc(Nc2nc(N)c(C(=O)c3c(F)cccc3F)s2)cc1 (as salt: hydrochloride) [Example A61, 4-[4-Amino-5-(2,6-difluoro-benzoyl)-thiazol-2-ylamino]-N-(2-dimethylamino-1,1-dimethyl-ethyl)-benzamide Dihydrochloride] |  |  |
|  | 130 nM | 10 nM |  | 120 nM |  | 72 nM |  |  | C[C@H](CNC(=O)c1ccc(Nc2nc(N)c(C(=O)c3c(F)cccc3F)s2)cc1)N(C)C [Example A44, 4-[4-Amino-5-(2,6-difluoro-benzoyl)-thiazol-2-ylamino]-N-(2R-dimethylamino-propyl)-benzamide] |  |  |
| 0% | 100 nM | 26 nM | 0% | 51 nM |  |  |  |  | Nc1nc(Nc2ccc(C(=O)Nc3ccc4c(c3)OCCO4)cc2)sc1C(=O)c1c(F)cccc1F [Example A17, 4-[4-Amino-5-(2,6-difluoro-benzoyl)-thiazol-2-ylamino]-N-(2,3-dihydro-benzo[1,4]dioxin-6-yl)-benzamide] |  |  |
| 0% | 94 nM | 13 nM | 0% | 62 nM |  |  |  |  | CC(=O)N(C)c1ccc(NC(=O)c2ccc(Nc3nc(N)c(C(=O)c4c(F)cccc4F)s3)cc2)cc1 [Example A25] |  |  |
|  |  |  |  |  |  |  | 29% | 19% | C[C@H](NC(=O)c1ccc(Nc2nc(N)c(C(=O)c3c(F)cccc3F)s2)cc1)c1ccccc1 [Example G167] | 26% | 53% |

Source: patent publication US6720346B2, “Thiazole benzamide derivatives and pharmaceutical compositions for inhibiting cell proliferation” (Agouron Pharmaceuticals, Inc., priority 2001, dated 2004)
